The target of data set [1] is Bovine serum albumin (Bos taurus, UniProt P02769). Nature of the data set: Inhibition of fructose/copper-induced oxidative protein glycation. The format is biochemical. Particulars: concentration of 1mM, after 72 h of incubation. The procedure:
The purification of the glycation product was based on protein precipitation and washing with trichloroacetic acid (TCA). The concentration of the glycation-modified protein was estimated by fluorescence measurements (excitation of 340 nm, emission of 410 nm). Incubations performed under the same conditions, yet in the absence of fructose, were used as a control. All the fluorescence measurements were expressed relatively to the standard quinine sulphate solution (1 μg/mL).

Data set [2] can be described thus: Interaction with the stable free radical DPPH. Particulars: for % Interaction with DPPH / Time to completion of the reaction with DPPH: DPPH 200 μΜ; for % Interaction with DPPH: after 30 min of incubation; for Interaction with DPPH (in words): 25-200 μΜ. The procedure:
The tested compounds, dissolved in absolute ethanol at final concentrations of 25 up to 200 μΜ, were mixed with DPPH and dissolved in the same solvent at a final concentration of 200 μΜ. The absorbance at 517 nm was recorded every 5 min for 30 min [41].
On the technique in general: Loss of DPPH colour is used to gauge radical scavenging.

Data set [3] concerns the target T1, soybean lipoxygenase (Glycine max, UniProt P08170).
T1 construct: purchased Sigma (St. Louis, MO, USA)
T1 sequence (P08170 1-839): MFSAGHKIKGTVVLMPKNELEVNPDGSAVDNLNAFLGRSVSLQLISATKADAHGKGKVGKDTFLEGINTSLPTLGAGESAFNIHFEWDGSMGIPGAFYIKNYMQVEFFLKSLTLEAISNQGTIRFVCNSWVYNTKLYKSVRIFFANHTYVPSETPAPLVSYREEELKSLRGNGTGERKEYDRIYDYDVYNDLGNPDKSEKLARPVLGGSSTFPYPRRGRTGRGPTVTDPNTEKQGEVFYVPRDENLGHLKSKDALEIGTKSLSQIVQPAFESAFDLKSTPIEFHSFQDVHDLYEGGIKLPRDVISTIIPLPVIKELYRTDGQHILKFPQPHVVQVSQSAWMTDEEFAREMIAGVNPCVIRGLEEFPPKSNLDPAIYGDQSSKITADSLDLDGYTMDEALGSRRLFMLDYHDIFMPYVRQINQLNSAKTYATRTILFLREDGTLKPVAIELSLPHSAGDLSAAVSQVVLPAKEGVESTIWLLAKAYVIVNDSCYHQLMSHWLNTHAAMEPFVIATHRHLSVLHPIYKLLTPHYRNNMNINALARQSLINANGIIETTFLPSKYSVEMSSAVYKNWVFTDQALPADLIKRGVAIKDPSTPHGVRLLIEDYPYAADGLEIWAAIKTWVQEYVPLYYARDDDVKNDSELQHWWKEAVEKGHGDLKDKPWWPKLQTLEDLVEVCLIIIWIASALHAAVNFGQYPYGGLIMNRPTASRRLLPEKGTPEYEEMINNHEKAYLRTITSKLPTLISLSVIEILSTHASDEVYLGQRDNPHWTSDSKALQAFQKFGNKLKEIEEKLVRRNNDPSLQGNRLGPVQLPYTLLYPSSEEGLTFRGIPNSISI
Nature of the data set: Soybean lipoxygenase inhibition. The format is biochemical. The procedure:
The reaction mixture (total volume of 3 mL) contained 100 μL of the test compounds (100 μM) or the solvent (absolute ethanol, control), 200 μL of soybean LOX (250 u/mL, in a 0.9% NaCl solution), and 2.6 mL of Tris–HCl buffer with a pH of 9.0. The reaction was initiated by the addition of 100 μL sodium linoleate (100 μM) in the sample mixture (with an equal volume of buffer added to the reference solution). The reaction was followed for 7 min at 28 °C, and the absorbance (234 nm) of a conjugated diene structure was recorded.

For data set [4], the system named is lipid peroxidation of rat hepatic microsomal membranes. Kind of data set: Inhibition of lipid peroxidation of rat hepatic microsomal membranes (TBA-reactive material). Particulars: for pIC50: read-out: IC50, lipid peroxidation; for pIC50 / IC50, lipid peroxidation: rat hepatic microsomal membranes, after 45 min of incubation.
For data set [5], the target named is T2, acetylcholinesterase (Rattus norvegicus, UniProt P37136).
T2 construct: mixed with brain homogenate (20 mg of tissue per mL) from untreated rats; from tissue; host or cells: rat brain homogenate
T2 sequence (P37136 32-614): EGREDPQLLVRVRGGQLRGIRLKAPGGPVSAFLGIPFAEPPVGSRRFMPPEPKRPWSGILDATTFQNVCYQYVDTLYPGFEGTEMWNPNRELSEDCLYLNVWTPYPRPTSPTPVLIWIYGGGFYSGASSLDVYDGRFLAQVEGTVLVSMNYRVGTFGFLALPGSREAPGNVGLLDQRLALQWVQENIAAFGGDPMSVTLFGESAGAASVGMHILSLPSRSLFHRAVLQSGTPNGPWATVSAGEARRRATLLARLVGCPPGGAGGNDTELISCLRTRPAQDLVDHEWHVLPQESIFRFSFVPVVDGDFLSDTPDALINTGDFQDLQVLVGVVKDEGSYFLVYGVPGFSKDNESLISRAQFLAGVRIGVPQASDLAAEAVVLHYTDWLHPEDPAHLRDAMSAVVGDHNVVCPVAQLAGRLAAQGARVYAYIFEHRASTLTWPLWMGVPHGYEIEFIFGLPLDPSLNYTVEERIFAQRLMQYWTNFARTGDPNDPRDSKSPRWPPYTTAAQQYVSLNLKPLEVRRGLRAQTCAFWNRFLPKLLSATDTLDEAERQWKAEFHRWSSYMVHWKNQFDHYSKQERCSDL
Kind of data set: Acetylcholinesterase inhibition (acetylthiocholine hydrolysis, rat brain homogenate). The format is biochemical. Particulars: acetylthiocholine 0.5 mM, after 7 min of incubation. The procedure: The tested compounds, dissolved in 60% ethanol, were mixed with brain homogenate (20 mg of tissue per mL) from untreated rats (in 0.1 M phosphate buffer with a pH of 8) and acetylthiocholine (0.5 mM).

Broadly, the inhibition is the drop in the measured response relative to a control, in per cent. Low values mean little suppression, high ones strong suppression. In general, pIC50 refers to the negative decadic logarithm of the IC50, by convention in mol/L.

pIC50: −log10 of the molar value.

Chain of Bovine serum albumin (P02769 25-607): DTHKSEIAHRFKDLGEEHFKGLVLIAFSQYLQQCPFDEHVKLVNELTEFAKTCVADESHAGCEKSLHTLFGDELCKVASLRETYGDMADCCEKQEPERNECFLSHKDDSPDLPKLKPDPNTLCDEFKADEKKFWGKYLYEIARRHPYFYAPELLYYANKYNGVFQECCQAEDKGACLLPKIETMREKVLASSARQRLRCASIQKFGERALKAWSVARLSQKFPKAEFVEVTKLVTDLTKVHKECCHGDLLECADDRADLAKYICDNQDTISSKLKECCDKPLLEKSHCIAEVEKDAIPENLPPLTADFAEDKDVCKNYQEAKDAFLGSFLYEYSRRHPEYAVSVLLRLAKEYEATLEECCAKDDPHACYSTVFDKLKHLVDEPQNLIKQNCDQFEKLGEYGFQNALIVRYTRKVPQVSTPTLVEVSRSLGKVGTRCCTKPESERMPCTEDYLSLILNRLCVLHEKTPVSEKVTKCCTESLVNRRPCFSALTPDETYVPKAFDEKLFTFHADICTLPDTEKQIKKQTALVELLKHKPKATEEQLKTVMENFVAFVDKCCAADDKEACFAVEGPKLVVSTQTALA

For `N=C(N)NN` [Aminoguanidine, reference compound], the “% Inhibition of protein glycation” value in data set [1] is reported as 56%.

As to `COC(=O)CCCNC(=O)C1CCCN1C(=O)/C=C/c1ccc(O)c(OC)c1` (stereo not shown) [Compound 1c, (E)-methyl 4-(1-(3-(4-hydroxy-3-methoxyphenyl)acryloyl)pyrrolidine-2-carboxamido)butanoate], the “% Interaction with DPPH” value in data set [2] (compound 25 μΜ) worked out at 10%; in data set [2] (compound 50 μΜ), 24%; in data set [2] (compound 100 μΜ), 37%; in data set [2] (compound 200 μΜ), 58%. Besides, the “Time to completion of the reaction with DPPH” value (“Time to completion” below) in data set [2] (compound 200 μΜ) is given as “about 15 min”. In data set [3], this molecule yielded an inhibition at 100 µM of 36%. The negative logarithm of the IC50 (pIC50) is 3.08 in data set [4] and 3.66 in data set [5]. In data set [1], this molecule yielded an inhibition at 1000 µM of 41%.

On to `COC(=O)CCCNC(=O)C1CCCN1C(=O)/C=C/c1cc(OC)c(O)c(OC)c1` (stereo not shown) [Compound 2c, (E)-methyl 4-(1-(3-(4-hydroxy-3,5-dimethoxyphenyl)-acryloyl)pyrrolidine-2-carboxamido)-butanoate], for which the “% Interaction with DPPH” value in data set [2] (compound 25 μΜ) is 17%; in data set [2] (compound 50 μΜ), 36%; in data set [2] (compound 100 μΜ) it was 64%; in data set [2] (compound 200 μΜ), 85%. Further, the “Time to completion” value in data set [2] (compound 200 μΜ) is given as “completed in the first five minutes”. Also, at 100 µM the inhibition in data set [3] was 40%. Besides, the negative-log IC50 (pIC50) is 3.54 in data set [4] and 3.53 in data set [5]. Besides, the inhibition at 1000 µM in data set [1] came to 48%.

For `COC(=O)CCCNC(=O)C1CCCN1C(=O)/C=C/c1ccc(OC)c(OC)c1` (stereo not shown) [Compound 3c, (E)-methyl 4-(1-(3-(3,4-dimethoxyphenyl)acryloyl)pyrrolidine-2-carboxamido)butanoate], the “Interaction with DPPH (in words)” value in data set [2] is given as “could not interact with DPPH at all”. Besides, the inhibition at 100 µM in data set [3] was 32%. For the same molecule, the “IC50, lipid peroxidation” value in data set [4] is reported as “could not inhibit lipid peroxidation”. Moreover, the pIC50 in data set [4] was less than 3.00; in data set [5], 3.55. Besides, in data set [1], the “% Inhibition of protein glycation” value was “did not exert any inhibition and -”.

In the case of `COC(=O)CCCNC(=O)C1CCCN1C(=O)/C=C/c1ccccc1` (stereo not shown) [Compound 4c, (E)-methyl 4-(1-cinnamoylpyrrolidine-2-carboxamido)butanoate], the “Interaction with DPPH (in words)” value in data set [2] is listed as “could not interact with DPPH at all”. At 100 µM the inhibition in data set [3] was 40%. In addition, in data set [4], the “IC50, lipid peroxidation” value is recorded as “could not inhibit lipid peroxidation” and the negative logarithm of the IC50 (pIC50) is less than 3.00. Moreover, the “% Inhibition of protein glycation” value in data set [1] was “did not exert any inhibition and -”. Further, in data set [5], the “IC50, acetylcholinesterase” value is “-”.

As to `COC(=O)CCCNC(=O)C1CCCN1C(=O)C1(C)CCc2c(C)c(O)c(C)c(C)c2O1` (stereo not shown) [Compound 5c, Methyl 4-(1-(6-hydroxy-2,5,7,8-tetramethylchroman-2-carbonyl)pyrrolidine-2-carboxamido)-butanoate], the “% Interaction with DPPH” value in data set [2] (compound 25 μΜ) came to 28%; in data set [2] (compound 50 μΜ) it was 54%; in data set [2] (compound 100 μΜ) it was 87%; in data set [2] (compound 200 μΜ), 89%. The “Time to completion” value in data set [2] (compound 200 μΜ) is listed as “completed in the first five minutes”. The molecule also showed an inhibition at 100 µM in data set [3] of 26%. For the same molecule, the “Activity against lipid peroxidation relative to Trolox” value in data set [4] (comparison of IC50 values) is recorded as “about three times more active than Trolox”. Further, the negative logarithm of the IC50 (pIC50) in data set [4] is 5.10. Moreover, in data set [1], 1000 µM produced 37% inhibition. For the same molecule, the “IC50, acetylcholinesterase” value in data set [5] is “could not inhibit the enzyme and no inhibitory activity and -”.

As to `Cc1c(C)c2c(c(C)c1O)CCC(C)(C(=O)O)O2` (stereo not shown) [Trolox, 6-hydroxy-2,5,7,8-tetramethylchroman-2-carboxylic acid], the “% Interaction with DPPH” value in data set [2] (compound 25 μΜ) came to 19%; in data set [2] (compound 50 μΜ) it was 38%; in data set [2] (compound 100 μΜ), 90%; in data set [2] (compound 200 μΜ), 92%. Further, the pIC50 in data set [4] was 4.60.

The record behind these values is article PMC11356873, “Trolox, Ferulic, Sinapic, and Cinnamic Acid Derivatives of Proline and GABA with Antioxidant and/or Anti-Inflammatory Properties” (Molecules, 2024).
